Reference: ChEMBL document CHEMBL5725642, “Inhibitors of human immunodeficiency virus replication” (2018)
Several values for one entry are separate records, joined by “and”; a condition that tells them apart may be missing. Equal values may be shown once.

Experiment: Infectivity Assay: HIV cell culture assay¿MT-2 cells, 293T cells and the proviral DNA clone of NL4-3 virus were obtained from the NIH AIDS Research and Reference Reagent Program. MT-2 cells were propagated in RPMI 1640 media supplemented with 10% heat inactivated fetal bovine serum (FBS), 100 ug/ml penicillin G and up to 100 units/ml streptomycin. The 293T cells were propagated in DMEM media supplemented with 10% heat inactivated FBS, 100 ug/ml penicillin G and 100 ug/ml streptomycin. A recombinant NL4-3 proviral clone, in which a section of the nef gene was replaced with the Renilla luciferase gene, was used to make the reference virus used in these studies. The recombinant virus was prepared through transfection of the recombinant NL4-3 proviral clone into 293T cells using Transit-293 Transfection Reagent from Mirus Bio LLC (Madison, Wis.). Supernatent was harvested after 2-3 days after transfection, and the amount of virus present was titered in MT-2 cells using luciferase enzyme activity as a marker. Luciferase activity was quantitated using the EnduRen Live Cell Substrate from Promega (Madison, Wis.). Antiviral activities of compounds toward the recombinant virus were quantified by measuring luciferase activity in MT-2 cells infected for 4-5 days with the recombinant virus in the presence of serial dilutions of the compound.The 50% effective concentration (EC50) was calculated by using the exponential form of the median effect equation where (Fa)=1/[1+(ED50/drug conc.)m](Johnson V A, Byington R T. Infectivity Assay. In Techniques in HIV Research. ed. Aldovini A, Walker B D. 71-76. New York: Stockton Press. 1990).
Type: cell-based

| Structure (SMILES) | EC50 |
| --- | --- |
| CN(C(=O)[C@H](Cc1ccccc1)NC(=O)NS(=O)(=O)c1ccccc1-c1cnn(C)c1)c1ccc2c(c1)OCO2 | 5.5 µM and 0.55 µM |
| Cc1ccccc1S(=O)(=O)NC(=O)N[C@H](CCc1ccccc1)C(=O)N(C)c1ccc2c(c1)OCO2 | 55 µM |
| CN(C(=O)[C@H](Cc1ccccc1)NC(=O)NS(=O)(=O)c1ccccc1)c1ccc2c(c1)OCO2 | 0.55 µM |
| CN(C(=O)[C@@H](Cc1ccccc1)NC(=O)NS(=O)(=O)c1ccccc1)c1ccc2c(c1)OCO2 | 55 µM |
| Cc1ccccc1S(=O)(=O)NC(=O)N[C@@H](CCc1ccccc1)C(=O)N(C)c1ccc2c(c1)OCO2 | 55 µM |
